Experimental data published in paper doi:10.1101/2024.08.19.608619, “Discovery of potent SARS-CoV-2 nsp3 macrodomain inhibitors uncovers lack of translation to cellular antiviral response” (bioRxiv, 2024).
Like-named read-outs stand apart in the source and are kept apart here.

Columns and labels:
CDK6/cyclinD3(h) = CDK6/cyclinD3(h) (Homo sapiens, UniProt Q00534); test: biochemical; parameters: In vitro kinase panel profiling, per cent remaining kinase activity at 10 uM; details: atp_concentration=200, read-out: % of control remaining
Chain of CDK6/cyclinD3(h) (Q00534 whole entry): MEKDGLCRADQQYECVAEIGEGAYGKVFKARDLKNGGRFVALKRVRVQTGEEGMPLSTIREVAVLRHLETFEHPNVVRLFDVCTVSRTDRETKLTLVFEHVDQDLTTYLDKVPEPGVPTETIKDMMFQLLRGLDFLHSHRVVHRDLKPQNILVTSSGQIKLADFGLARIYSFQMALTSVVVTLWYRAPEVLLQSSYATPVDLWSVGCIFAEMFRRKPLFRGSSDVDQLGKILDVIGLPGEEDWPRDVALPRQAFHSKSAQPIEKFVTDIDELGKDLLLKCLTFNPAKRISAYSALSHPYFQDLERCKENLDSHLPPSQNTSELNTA
Chain of CDK6/cyclinD3(h) (P30281 whole entry partner): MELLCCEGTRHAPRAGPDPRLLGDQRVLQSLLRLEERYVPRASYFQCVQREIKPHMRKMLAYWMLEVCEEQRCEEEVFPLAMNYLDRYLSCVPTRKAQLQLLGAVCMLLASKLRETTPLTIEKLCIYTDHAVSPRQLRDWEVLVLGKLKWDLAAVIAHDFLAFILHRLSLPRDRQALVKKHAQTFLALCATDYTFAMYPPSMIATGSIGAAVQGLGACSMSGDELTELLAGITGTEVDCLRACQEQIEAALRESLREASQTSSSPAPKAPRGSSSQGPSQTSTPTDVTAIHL
Source text: (§1) We derisk potential for off-target activity by profiling the compound in a CEREP panel, a standard secondary pharmacology assessment, as well as a kinase panel to derisk a potential hinge-binding motif in our leads, and a PARP panel to derisk activity against human […]. Reassuringly, the compounds are selective, with the only off-targets being moderate human CHRM2 and KOR receptors activity associated with ASAP-0011198.

ASK1(h) = biological target: T1, ASK1(h) (Homo sapiens, UniProt Q99683); test: biochemical; parameters: In vitro kinase panel profiling, per cent remaining kinase activity at 10 uM; details: atp_concentration=200, read-out: % of control remaining
T1 construct: gene MAP3K5
T1 sequence (Q99683 1-1374): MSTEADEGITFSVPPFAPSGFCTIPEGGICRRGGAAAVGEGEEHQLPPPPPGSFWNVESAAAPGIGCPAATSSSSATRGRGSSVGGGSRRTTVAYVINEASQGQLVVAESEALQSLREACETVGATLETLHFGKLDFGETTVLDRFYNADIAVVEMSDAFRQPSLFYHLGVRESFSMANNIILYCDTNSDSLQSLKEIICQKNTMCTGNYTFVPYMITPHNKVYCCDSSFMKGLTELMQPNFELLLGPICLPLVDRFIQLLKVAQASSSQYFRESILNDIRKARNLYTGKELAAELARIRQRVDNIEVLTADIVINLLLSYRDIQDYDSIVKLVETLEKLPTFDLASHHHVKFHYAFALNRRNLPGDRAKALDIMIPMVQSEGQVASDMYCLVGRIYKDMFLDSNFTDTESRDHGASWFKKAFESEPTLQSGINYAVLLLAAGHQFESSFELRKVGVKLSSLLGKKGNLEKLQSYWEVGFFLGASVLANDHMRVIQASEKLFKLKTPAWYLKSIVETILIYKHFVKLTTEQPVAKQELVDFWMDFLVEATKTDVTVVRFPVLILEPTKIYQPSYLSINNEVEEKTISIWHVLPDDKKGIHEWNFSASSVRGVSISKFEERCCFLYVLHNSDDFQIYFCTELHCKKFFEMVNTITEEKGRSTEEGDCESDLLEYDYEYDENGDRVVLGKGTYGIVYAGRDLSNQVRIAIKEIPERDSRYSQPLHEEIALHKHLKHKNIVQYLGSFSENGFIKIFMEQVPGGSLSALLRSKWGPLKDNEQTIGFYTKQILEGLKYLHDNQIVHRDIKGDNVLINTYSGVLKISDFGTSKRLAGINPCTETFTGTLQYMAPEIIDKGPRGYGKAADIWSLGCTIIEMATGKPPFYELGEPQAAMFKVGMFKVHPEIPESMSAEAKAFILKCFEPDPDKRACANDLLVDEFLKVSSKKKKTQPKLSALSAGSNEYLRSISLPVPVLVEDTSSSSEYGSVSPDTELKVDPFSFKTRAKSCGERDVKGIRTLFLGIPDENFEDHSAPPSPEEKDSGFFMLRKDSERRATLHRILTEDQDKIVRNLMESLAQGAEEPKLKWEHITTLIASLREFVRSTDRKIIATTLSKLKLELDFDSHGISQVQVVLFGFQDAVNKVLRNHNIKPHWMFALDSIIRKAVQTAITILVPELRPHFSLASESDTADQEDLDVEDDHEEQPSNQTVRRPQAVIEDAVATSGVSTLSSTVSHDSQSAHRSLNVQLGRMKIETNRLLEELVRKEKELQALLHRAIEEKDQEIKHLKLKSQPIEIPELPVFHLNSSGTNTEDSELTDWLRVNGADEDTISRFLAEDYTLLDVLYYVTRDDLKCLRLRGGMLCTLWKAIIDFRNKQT
Source text: as §1

PKCα(h) = biological target: T2, PKCα(h) (Homo sapiens, UniProt P17252); test: biochemical; parameters: In vitro kinase panel profiling, per cent remaining kinase activity at 10 uM; details: atp_concentration=45, read-out: % of control remaining
T2 construct: gene PRKCA
Source text: as §1

PKCθ(h) = biological target: T3, PKCθ(h) (Homo sapiens, UniProt Q04759); test: biochemical; parameters: In vitro kinase panel profiling, per cent remaining kinase activity at 10 uM; details: atp_concentration=15, read-out: % of control remaining
T3 construct: gene PRKCQ
T3 sequence (Q04759 whole entry): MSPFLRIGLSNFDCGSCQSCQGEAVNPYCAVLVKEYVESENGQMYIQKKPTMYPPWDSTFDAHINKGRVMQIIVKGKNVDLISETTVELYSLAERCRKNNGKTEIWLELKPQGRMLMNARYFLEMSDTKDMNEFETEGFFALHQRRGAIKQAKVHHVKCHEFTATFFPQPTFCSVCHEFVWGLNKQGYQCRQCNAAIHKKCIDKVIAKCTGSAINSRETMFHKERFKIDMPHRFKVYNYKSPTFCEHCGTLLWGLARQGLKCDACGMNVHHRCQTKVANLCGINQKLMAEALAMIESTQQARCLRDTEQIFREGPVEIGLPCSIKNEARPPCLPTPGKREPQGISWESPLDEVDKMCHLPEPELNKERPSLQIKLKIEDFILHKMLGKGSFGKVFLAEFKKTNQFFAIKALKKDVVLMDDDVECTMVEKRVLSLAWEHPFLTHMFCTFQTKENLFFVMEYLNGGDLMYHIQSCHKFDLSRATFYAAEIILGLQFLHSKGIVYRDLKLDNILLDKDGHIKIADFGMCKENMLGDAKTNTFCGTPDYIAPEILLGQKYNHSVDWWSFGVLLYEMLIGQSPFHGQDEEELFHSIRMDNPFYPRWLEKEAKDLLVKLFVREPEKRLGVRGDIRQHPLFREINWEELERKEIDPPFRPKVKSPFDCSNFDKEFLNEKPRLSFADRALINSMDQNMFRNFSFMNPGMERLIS
Source text: as §1

KOR receptor = biological target: T4, KOR receptor (Homo sapiens, UniProt P41145); test: Eurofins CEREP panel, KOR; assay type: binding; details: for perc_inhibition (% inhibition of the binding of a ligand specific for each target) / inhibition at 10 µM: kappa (h) (KOP) (agonist radioligand), test compound concentration 10 uM; for inhibition at 10 µM: read-out: perc_inhibition (% inhibition of the binding of a ligand specific for each target)
T4 construct: purchased Eurofins Cerep (SafetyScreen44), recognised from the panel format

D2S (h) = biological target: T5, D2S (h) (Homo sapiens, UniProt P14416); test: In vitro CEREP profiling, D2S (h) (agonist radioligand); assay type: binding; details: test compound 10 uM; for inhibition at 10 µM: read-out: perc_inhibition (% inhibition of the binding of a ligand specific for each target)
T5 construct: purchased Eurofins Cerep (SafetyScreen44), recognised from the panel format
Source text: (§2) Supplement media-1.zip/Safety_Panel_Profile.csv, table | column: perc_inhibition

V1a (h) = biological target: T6, V1a (h) (Homo sapiens, UniProt P37288); test: In vitro CEREP profiling, V1a (h) (agonist radioligand); assay type: binding; details: test compound concentration 10 uM; for inhibition at 10 µM: read-out: perc_inhibition, % inhibition of the binding of a ligand specific for each target
T6 construct: purchased Eurofins Cerep (SafetyScreen44), recognised from the panel format
T6 sequence (P37288 whole entry): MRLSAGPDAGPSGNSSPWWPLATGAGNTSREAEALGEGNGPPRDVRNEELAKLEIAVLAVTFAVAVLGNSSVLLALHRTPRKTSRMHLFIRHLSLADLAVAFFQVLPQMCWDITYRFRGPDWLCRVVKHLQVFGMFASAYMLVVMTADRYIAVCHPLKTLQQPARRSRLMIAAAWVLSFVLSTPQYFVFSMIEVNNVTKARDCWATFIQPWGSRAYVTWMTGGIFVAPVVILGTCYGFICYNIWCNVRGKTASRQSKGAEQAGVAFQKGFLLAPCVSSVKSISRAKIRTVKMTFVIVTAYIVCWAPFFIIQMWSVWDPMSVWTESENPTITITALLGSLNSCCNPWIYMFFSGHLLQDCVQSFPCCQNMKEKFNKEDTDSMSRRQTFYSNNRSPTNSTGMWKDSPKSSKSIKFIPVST
Source text: as §2

dopamine transporter (h) = biological target: T7, dopamine transporter (h) (Homo sapiens, UniProt Q01959); test: In vitro CEREP profiling, dopamine transporter (h) (antagonist radioligand); assay type: binding; details: test compound concentration 10 uM; for inhibition at 10 µM: read-out: perc_inhibition, % inhibition of the binding of a ligand specific for each target
T7 construct: purchased Eurofins Cerep (SafetyScreen44), recognised from the panel format
T7 sequence (Q01959 whole entry): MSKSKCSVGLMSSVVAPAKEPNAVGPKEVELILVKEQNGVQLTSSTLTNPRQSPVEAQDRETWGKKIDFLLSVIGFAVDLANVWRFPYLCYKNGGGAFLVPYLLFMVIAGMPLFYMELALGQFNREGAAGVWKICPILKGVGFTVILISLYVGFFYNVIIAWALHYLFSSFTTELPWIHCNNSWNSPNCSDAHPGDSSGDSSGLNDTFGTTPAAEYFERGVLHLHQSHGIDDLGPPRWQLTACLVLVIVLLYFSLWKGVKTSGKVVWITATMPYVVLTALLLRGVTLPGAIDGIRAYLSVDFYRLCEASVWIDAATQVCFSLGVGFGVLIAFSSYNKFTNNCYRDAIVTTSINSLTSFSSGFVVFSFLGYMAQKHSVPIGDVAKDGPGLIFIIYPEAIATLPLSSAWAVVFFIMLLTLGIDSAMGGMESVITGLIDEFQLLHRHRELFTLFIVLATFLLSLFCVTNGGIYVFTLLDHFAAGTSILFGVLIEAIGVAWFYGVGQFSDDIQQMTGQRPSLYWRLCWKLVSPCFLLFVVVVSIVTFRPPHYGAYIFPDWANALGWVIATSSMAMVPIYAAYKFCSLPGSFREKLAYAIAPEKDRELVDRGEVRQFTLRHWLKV
Source text: as §2

D1 (h) = biological target: T8, D1 (h) (Homo sapiens, UniProt P21728); test: In vitro CEREP profiling, D1 (h) (antagonist radioligand); assay type: binding; details: test compound 10 uM; for inhibition at 10 µM: read-out: perc_inhibition (% inhibition of the binding of a ligand specific for each target)
T8 construct: purchased Eurofins Cerep (SafetyScreen44), recognised from the panel format
Source text: as §2

5-HT2A (h) = biological target: T9, 5-HT2A (h) (Homo sapiens, UniProt P28223); test: In vitro CEREP profiling, 5-HT2A (h) (agonist radioligand); assay type: binding; details: test compound concentration 10 uM; for inhibition at 10 µM: read-out: perc_inhibition, % inhibition of the binding of a ligand specific for each target
T9 construct: purchased Eurofins Cerep (SafetyScreen44), recognised from the panel format
T9 sequence (P28223 whole entry): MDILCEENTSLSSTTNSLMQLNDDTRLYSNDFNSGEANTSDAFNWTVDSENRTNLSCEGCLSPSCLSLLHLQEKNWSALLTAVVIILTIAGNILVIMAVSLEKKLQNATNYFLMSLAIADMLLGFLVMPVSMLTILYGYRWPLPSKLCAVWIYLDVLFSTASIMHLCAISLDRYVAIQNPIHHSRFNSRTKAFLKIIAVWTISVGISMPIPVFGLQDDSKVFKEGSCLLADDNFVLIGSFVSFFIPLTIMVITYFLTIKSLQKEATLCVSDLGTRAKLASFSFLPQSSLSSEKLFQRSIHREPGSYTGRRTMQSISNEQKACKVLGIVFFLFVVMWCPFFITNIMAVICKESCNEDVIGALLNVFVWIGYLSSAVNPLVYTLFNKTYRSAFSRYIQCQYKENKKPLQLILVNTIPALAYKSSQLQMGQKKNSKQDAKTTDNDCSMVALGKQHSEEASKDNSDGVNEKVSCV
Source text: as §2

COX1(h) = biological target: T10, COX1(h) (Homo sapiens, UniProt P23219); test: In vitro CEREP profiling, COX1(h); assay type: biochemical; details: test compound concentration 10 uM, Enzyme and Cell-based assays; for inhibition at 10 µM: read-out: perc_inhibition: % inhibition of control enzyme activity, COX1(h)
T10 construct: purchased Eurofins Cerep (SafetyScreen44), recognised from the panel format
Source text: as §2

NaV1.5 = NaV1.5 (Homo sapiens, UniProt Q14524); test: In vitro NaV1.5 cardiotoxicity; details: top test concentration 30 uM
Chain of NaV1.5 (Q14524 whole entry): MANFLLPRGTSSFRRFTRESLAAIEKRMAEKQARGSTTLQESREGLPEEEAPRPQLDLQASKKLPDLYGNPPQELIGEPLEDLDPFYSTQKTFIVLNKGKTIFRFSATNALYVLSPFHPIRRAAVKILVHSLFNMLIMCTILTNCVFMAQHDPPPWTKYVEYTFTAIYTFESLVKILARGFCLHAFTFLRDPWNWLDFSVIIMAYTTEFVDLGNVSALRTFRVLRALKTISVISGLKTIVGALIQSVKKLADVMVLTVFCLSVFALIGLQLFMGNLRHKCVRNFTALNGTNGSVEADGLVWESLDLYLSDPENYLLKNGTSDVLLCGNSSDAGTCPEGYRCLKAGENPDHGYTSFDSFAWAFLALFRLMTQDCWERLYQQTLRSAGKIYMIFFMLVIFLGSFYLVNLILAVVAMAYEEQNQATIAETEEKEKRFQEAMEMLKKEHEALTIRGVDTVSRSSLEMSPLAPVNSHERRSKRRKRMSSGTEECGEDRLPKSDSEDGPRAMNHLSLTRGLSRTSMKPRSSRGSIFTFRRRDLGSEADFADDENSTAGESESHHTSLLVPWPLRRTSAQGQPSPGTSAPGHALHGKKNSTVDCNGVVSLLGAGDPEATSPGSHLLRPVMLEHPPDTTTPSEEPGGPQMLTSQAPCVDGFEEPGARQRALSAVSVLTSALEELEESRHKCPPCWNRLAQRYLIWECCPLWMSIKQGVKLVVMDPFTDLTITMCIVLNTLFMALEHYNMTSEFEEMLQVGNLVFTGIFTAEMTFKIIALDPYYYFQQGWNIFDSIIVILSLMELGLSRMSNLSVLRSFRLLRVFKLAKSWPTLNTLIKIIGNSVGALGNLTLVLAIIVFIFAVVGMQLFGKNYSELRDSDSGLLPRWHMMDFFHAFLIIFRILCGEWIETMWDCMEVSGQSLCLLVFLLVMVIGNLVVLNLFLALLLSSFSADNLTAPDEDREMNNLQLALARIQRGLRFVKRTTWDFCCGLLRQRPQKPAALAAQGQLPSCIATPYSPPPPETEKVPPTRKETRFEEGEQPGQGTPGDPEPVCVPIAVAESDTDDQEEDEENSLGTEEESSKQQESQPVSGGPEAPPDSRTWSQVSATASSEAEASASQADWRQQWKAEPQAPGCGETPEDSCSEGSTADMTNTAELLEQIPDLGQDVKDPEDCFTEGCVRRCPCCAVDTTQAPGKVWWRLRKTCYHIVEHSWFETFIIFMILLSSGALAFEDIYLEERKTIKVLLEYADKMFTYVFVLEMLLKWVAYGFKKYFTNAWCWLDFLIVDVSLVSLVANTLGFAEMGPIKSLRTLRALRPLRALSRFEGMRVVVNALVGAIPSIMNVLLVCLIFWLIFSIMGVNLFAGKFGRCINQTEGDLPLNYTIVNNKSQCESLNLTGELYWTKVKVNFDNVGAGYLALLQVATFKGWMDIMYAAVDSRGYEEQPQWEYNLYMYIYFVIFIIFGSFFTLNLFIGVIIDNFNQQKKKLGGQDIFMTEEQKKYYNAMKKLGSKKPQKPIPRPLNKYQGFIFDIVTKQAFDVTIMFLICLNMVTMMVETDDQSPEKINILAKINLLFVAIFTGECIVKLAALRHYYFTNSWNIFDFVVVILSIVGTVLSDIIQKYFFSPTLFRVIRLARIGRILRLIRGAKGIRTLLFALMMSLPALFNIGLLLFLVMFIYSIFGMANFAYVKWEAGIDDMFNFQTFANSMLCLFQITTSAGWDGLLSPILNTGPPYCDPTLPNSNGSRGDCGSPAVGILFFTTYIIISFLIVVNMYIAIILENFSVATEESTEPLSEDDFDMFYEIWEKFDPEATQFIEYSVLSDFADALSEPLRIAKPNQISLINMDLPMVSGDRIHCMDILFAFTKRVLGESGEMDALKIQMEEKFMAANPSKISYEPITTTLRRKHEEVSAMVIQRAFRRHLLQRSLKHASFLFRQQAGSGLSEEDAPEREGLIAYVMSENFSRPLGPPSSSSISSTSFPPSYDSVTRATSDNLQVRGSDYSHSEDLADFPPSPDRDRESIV
Source text: Supplement media-1.zip/Cardiotoxicity.csv, table | column: ic50_rest_state; ic50_use_dep_block; perc_inhibition_rest_state; perc_inhibition_use_dep_block

NMDA = test: In vitro CEREP profiling, NMDA (antagonist radioligand); assay type: binding
Source text: as §2

[1] = NaV1.5, rest state, read-out: ic50_rest_state
[2] = NaV1.5, use dependent block, read-out: ic50_use_dep_block
[3] = test compound concentration 10 uM

Row | Structure (SMILES) | perc_inhibition (% inhibition of the binding of a ligand specific for each target) (KOR receptor) [%] | perc_inhibition (% inhibition of the binding of a ligand specific for each target) (D2S (h)) [%] | perc_inhibition (% inhibition of the binding of a ligand specific for each target) (V1a (h)) [%] | perc_inhibition (% inhibition of the binding of a ligand specific for each target) (dopamine transporter (h)) [%] | perc_inhibition (% inhibition of the binding of a ligand specific for each target) (D1 (h)) [%] | perc_inhibition (% inhibition of the binding of a ligand specific for each target) (5-HT2A (h)) [%] | perc_inhibition: % inhibition of control enzyme activity, COX1(h) (COX1(h)) [%] | perc_inhibition_rest_state (NaV1.5; NaV1.5, rest state) [%] | IC50 (NaV1.5; [1]) [µM] | perc_inhibition_use_dep_block (NaV1.5; NaV1.5, use dependent block) [%] | IC50 (NaV1.5; [2]) [µM] | perc_inhibition (% inhibition of the binding of a ligand specific for each target) (NMDA; [3]) [%] | inhibition at 10 µM (KOR receptor) [%] | inhibition at 10 µM (D2S (h)) [%] | inhibition at 10 µM (V1a (h)) [%] | inhibition at 10 µM (dopamine transporter (h)) [%] | inhibition at 10 µM (D1 (h)) [%] | inhibition at 10 µM (5-HT2A (h)) [%] | inhibition at 10 µM (COX1(h)) [%] | perc_inhibition (% inhibition of the binding of a ligand specific for each target) (NMDA; test compound 10 uM) [%] | also measured
1 | CC(C)[C@H](Nc1ncnc2[nH]ccc12)c1ccc2c(c1)S(=O)(=O)CCC2 [ASAP-0008674] | 84 | -14 | 6 | 27 | -4 | 12 | 85 | 19.0 | > 30 | 29.0 | > 30 | -1 |  |  |  |  |  |  |  |  | remaining activity at 10 µM (CDK6/cyclinD3(h); batch_name=ASAP-0008674-002): 105%; remaining activity at 10 µM (ASK1(h); batch_name=ASAP-0008674-002): 105%; remaining activity at 10 µM (PKCα(h); batch_name=ASAP-0008674-002): 98%; remaining activity at 10 µM (PKCθ(h); batch_name=ASAP-0008674-002): 88%
2 | CC(C)C(Nc1ncnc2[nH]c(C(=O)NC3CCN(C)C3)cc12)c1ccc2c(c1)S(=O)(=O)CCC2 (centres unmarked) [ASAP-0011198] |  |  |  |  |  |  |  |  | > 30 |  | > 30 | 1 | 78 | -7 | 6 | 22 | -3 | 1 | 44 |  | remaining activity at 10 µM (CDK6/cyclinD3(h); batch_name=ASAP-0011198-002): 99%; remaining activity at 10 µM (ASK1(h); batch_name=ASAP-0011198-002): 105%; remaining activity at 10 µM (PKCα(h); batch_name=ASAP-0011198-002): 101%; remaining activity at 10 µM (PKCθ(h); batch_name=ASAP-0011198-002): 102%; off-target activity at KOR receptor, in words (KOR receptor; CEREP panel): moderate; inhibition at 30 µM (NaV1.5; NaV1.5, rest state, read-out: perc_inhibition_rest_state): 11%; inhibition at 30 µM (NaV1.5; NaV1.5, use dependent block, read-out: perc_inhibition_use_dep_block): 11%
3 | Cc1nn(C)cc1-c1cc2c(NC(c3ccc4c(c3)S(=O)(=O)CCC4)C(C)C)ncnc2[nH]1 (centres unmarked) [ASAP-0011446] |  |  |  |  |  |  |  |  |  |  |  | -2 | 45 | -16 | 14 | 13 | 3 | 51 | -23 |  | remaining activity at 10 µM (CDK6/cyclinD3(h); batch_name=ASAP-0011446-002): 106%; remaining activity at 10 µM (ASK1(h); batch_name=ASAP-0011446-002): 103%; remaining activity at 10 µM (PKCα(h); batch_name=ASAP-0011446-002): 93%; remaining activity at 10 µM (PKCθ(h); batch_name=ASAP-0011446-002): 106%
4 | C[C@H](C(=O)O)[C@@H](NC(=O)c1ncnc2[nH]ccc12)c1ccc(Br)cc1 [ASAP-0014722] | 2 | -1 | 62 | 4 | -8 | 1 | 14 | 18.0 | > 30 | 16.0 | > 30 |  |  |  |  |  |  |  |  | 4 | remaining activity at 10 µM (CDK6/cyclinD3(h); batch_name=ASAP-0014722-002): 97%; remaining activity at 10 µM (ASK1(h); batch_name=ASAP-0014722-002): 102%; remaining activity at 10 µM (PKCα(h); batch_name=ASAP-0014722-002): 108%; remaining activity at 10 µM (PKCθ(h); batch_name=ASAP-0014722-002): 100%
5 | COc1ccc([C@H](Cc2nnn[nH]2)NC(=O)c2ncnc3[nH]ccc23)cc1 [ASAP-0015381] | 2 | -4 | 5 | 7 | -18 | -4 | 17 | 9.0 | > 30 | 8.0 | > 30 |  |  |  |  |  |  |  |  | 9 | remaining activity at 10 µM (CDK6/cyclinD3(h); batch_name=ASAP-0015381-001): 102%; remaining activity at 10 µM (ASK1(h); batch_name=ASAP-0015381-001): 103%; remaining activity at 10 µM (PKCα(h); batch_name=ASAP-0015381-001): 93%; remaining activity at 10 µM (PKCθ(h); batch_name=ASAP-0015381-001): 91%
